One experiment concerns cancer cell W-2K-11. Nature of the experiment: Growth inhibition of cancer cell W-2K-11 (percent inhibition of cell multiplication, Table 2). In kind it is cell-based, mouse. Conditions: Mus musculus, 48 h, read-out: Percent inhibition (%). The procedure:
Cancer cell W-2K-11 was obtained by transforming fibroblast C3H-2K clone derived from kidney of mouse by cancerogenic virus. The cancer cell W-2K-11 was cultured by the following method.
(1) Preparation of culture medium
9.4 Gram of Eagle's MEM culture media (manufactured by Nissui Seiyaku K. K.) was dissolved in 900 ml. of distilled water and the solution was sterilized under high pressure at 120° C. for 15 minutes and cooled. 100 Ml. of calf serum and 3-5 ml. of 10% aqueous solution of sodium bicarbonate were added to the solution to adjust pH to 7.1-7.2. 10 Ml. of an aqueous solution of L-glutamine (2.92 g./100 ml.) filtered by a millipore filter was added just before the use of the solution as culture medium.
(2) Preparation of transplanted cell solution
The cancer cell W-2K-11 stored in a freezer at -80° C. was melted at room temperature and treated by a centrifugal separator at 670 g. for 5 minutes. The precipitated cell was dispersed in 50 ml. of the culture medium (1). The suspension was charged into Roux flask and cultured at 37° C. The multiplication of the cells was initiated and accomplished after 3 to 4 days. The cultured mixture was decanted and 10 ml. of 0.2% trypsin solution was added and the mixture was kept at room temperature for 2 to 3 minutes and the trypsin mixture was decanted and then, 50 ml. of the culture medium (1) was added to prepare a suspension of cells.
(3) Incubation of cells and addition of sample
1.8 Ml. of the suspension of cells (2) was charged into each Petri dish and incubated in a carbon dioxide gas incubator (5% of CO2; 95% of air) at 37° C. Twenty four hours after the initiation of the incubation, 0.2 ml. of each ethanol solution of each sample was added, and the incubation was continued. Forty eight hours after the addition of the sample, numbers of survival cells were counted under a microscopic observation and each percent inhibition of cell multiplication was calculated. [formula]
Regarding `COC1/C=C\C=C(/C)C(=O)NC2=CC(=O)C(NCC(C)C)=C(CC(C)CC(OC)C(O)C(C)/C=C(\C)C1OC(N)=O)C2=O` (centres unmarked) [Example 12], the inhibition (in general, the relative decrease from the control value, in per cent) at 1 µg/mL worked out at 90%.
Turning to `CCCCCCCCCCNC1=C2CC(C)CC(OC)C(O)C(C)/C=C(\C)C(OC(N)=O)C(OC)/C=C\C=C(/C)C(=O)NC(=CC1=O)C2=O` (centres unmarked) [Example 10], the inhibition at 10 µg/mL came to 48%.
Turning to `COC1C=CC=C(C)C(=O)NC2=CC(=O)C(NCc3ccncc3)=C(CC(C)CC(OC)C(O)C(C)C=C(C)C1OC(N)=O)C2=O` (centres unmarked) [Example 30], the inhibition at 5 µg/mL amounted to 95%.
Consider `COC1/C=C\C=C(/C)C(=O)NC2=CC(=O)C(N3CC3)=C(CC(C)CC(OC)C(O)C(C)/C=C(\C)C1OC(N)=O)C2=O` (centres unmarked) [Example 2, 17-ethyleneimino-Geldenamycin], for which the inhibition at 1 µg/mL stood at 97%.
On the same count and under the same terms, the figure for `CCCCCNC1=C2CC(C)CC(OC)C(O)C(C)/C=C(\C)C(OC(N)=O)C(OC)/C=C\C=C(/C)C(=O)NC(=CC1=O)C2=O` (centres unmarked) [Example 6] is 90%.
Turning to `COC1=C2CC(C)CC(OC)C(O)C(C)C=C(C)C(OC(N)=O)C(OC)C=CC=C(C)C(=O)NC(=C(I)C1=O)C2=O` (centres unmarked) [Example 38, 19-iodo-Geldanamycin], the inhibition at 5 µg/mL worked out at 95%.
As to `CNC(=O)OC1C(C)=CC(C)C(O)C(OC)CC(C)CC2=C(OC)C(=O)C=C(N=C(OC)C(C)=CC=CC1OC)C2=O` (centres unmarked) [Example 44, 1-O-methyl-7-OCONH-methyl-Geldanamycin], the inhibition at 1 µg/mL stood at 94% and the inhibition at 10 µg/mL was 80%.
On to `COC1/C=C\C=C(/C)C(=O)NC2=CC(=O)C(NCCCl)=C(CC(C)CC(OC)C(O)C(C)/C=C(\C)C1OC(N)=O)C2=O` (centres unmarked) [Example 20], for which the inhibition at 1 µg/mL is 98%.
As to `COC1C=CC=C(C)C(=O)NC2=CC(=O)C(NCCc3ccccn3)=C(CC(C)CC(OC)C(O)C(C)C=C(C)C1OC(N)=O)C2=O` (centres unmarked) [Example 31], the inhibition at 5 µg/mL amounted to 93%.

Staying with this experiment, now noted: Mus musculus; concentration 0.5 μg/ml; 48 hours after addition of sample; W-2K-11 cells.
In turn, `COCCNC1=C2CC(C)CC(OC)C(O)C(C)C=C(C)C(OC(N)=O)C(OC)C=CC=C(C)C(=O)NC(=CC1=O)C2=O` (centres unmarked) [Example 33] gave an inhibition at 0.5 µg/mL of 95%.

Still in this experiment, the particulars now being: Mus musculus; concentration 1 μg/ml; 48 hours after addition of sample; W-2K-11 cells; read-out: Percent inhibition (%).
Take `CNC(=O)OC1C(C)=CC(C)C(O)C(OC)CC(C)CC2=C(OC)C(=O)C=C(C2=O)N(C)C(=O)C(C)=CC=CC1OC` (centres unmarked) [Example 42, 21-N-methyl-7-OCONH-methyl-Geldanamycin]: the inhibition at 1 µg/mL is 82%.
With `CCCCCCNC1=C2CC(C)CC(OC)C(O)C(C)/C=C(\C)C(OC(N)=O)C(OC)/C=C\C=C(/C)C(=O)NC(=CC1=O)C2=O` (centres unmarked) [Example 7], the inhibition at 1 µg/mL turned out to be 90%.
The same measure, in the same setting: the figure for `COC1C=CC=C(C)C(=O)NC2=CC(=O)C(NCCc3ccccc3)=C(CC(C)CC(OC)C(O)C(C)C=C(C)C1OC(N)=O)C2=O` (centres unmarked) [Example 24] is 82%; for `CCCCNC1=C2CC(C)CC(OC)C(O)C(C)/C=C(\C)C(OC(N)=O)C(OC)/C=C\C=C(/C)C(=O)NC(=CC1=O)C2=O` (centres unmarked) [Example 5] it is 85%.
Same read-out and setting: as for `COC1C=CC=C(C)C(=O)NC2=CC(=O)C(NCc3ccccc3)=C(CC(C)CC(OC)C(O)C(C)C=C(C)C1OC(N)=O)C2=O` (centres unmarked) [Example 23], the figure is 88%; as for `CCCCCCCNC1=C2CC(C)CC(OC)C(O)C(C)/C=C(\C)C(OC(N)=O)C(OC)/C=C\C=C(/C)C(=O)NC(=CC1=O)C2=O` (centres unmarked) [Example 8], 96%; as for `COC1/C=C\C=C(/C)C(=O)NC2=CC(=O)C(NC3CC3)=C(CC(C)CC(OC)C(O)C(C)/C=C(\C)C1OC(N)=O)C2=O` (centres unmarked) [Example 13], 94%.
The same measure, in the same setting: the figure for `CNC(=O)OC1C(C)=CC(C)C(O)C(OC)CC(C)CC2=C(OC)C(=O)C=C(NC(=O)C(C)=CC=CC1OC)C2=O` (centres unmarked) [Example 43, 7-OCONH-methyl Geldanamycin] is 60%.
Consider `CCCNC1=C2CC(C)CC(OC)C(O)C(C)/C=C(\C)C(OC(N)=O)C(OC)/C=C\C=C(/C)C(=O)NC(=CC1=O)C2=O` (centres unmarked) [Example 1, 17-n-propylamino-Geldanamycin], for which the inhibition at 1 µg/mL was found to be 92%.
With `COC1/C=C\C=C(/C)C(=O)NC2=CC(=O)C(NCCO)=C(CC(C)CC(OC)C(O)C(C)/C=C(\C)C1OC(N)=O)C2=O` (centres unmarked) [Example 18], the inhibition at 1 µg/mL came to 98%.
For the compound `COC1/C=C\C=C(/C)C(=O)NC2=CC(=O)C(NC3CCCC3)=C(CC(C)CC(OC)C(O)C(C)/C=C(\C)C1OC(N)=O)C2=O` (centres unmarked) [Example 14], the inhibition at 1 µg/mL turned out to be 98%.
The same measure, in the same setting: as for `COC1=NC2=CC(=O)C(OC)=C(CC(C)CC(OC)C(O)C(C)C=C(C)C(OC(N)=O)C(OC)C=CC=C1C)C2=O` (centres unmarked) [Example 40, 1-O-methyl-Geldanamycin], the figure is 80%.
Same read-out and setting: the figure for `COC1/C=C\C=C(/C)C(=O)NC2=CC(=O)C(NC3CCCCC3)=C(CC(C)CC(OC)C(O)C(C)/C=C(\C)C1OC(N)=O)C2=O` (centres unmarked) [Example 15] is 98%; for `C=CCNC1=C2CC(C)CC(OC)C(O)C(C)/C=C(\C)C(OC(N)=O)C(OC)/C=C\C=C(/C)C(=O)NC(=CC1=O)C2=O` (centres unmarked) [Example 22] it is 93%.

The experiment is the same for the next values; noted with them: Mus musculus; concentration 5 μg/ml; 48 hours after addition of sample; W-2K-11 cells; read-out: Percent inhibition (%).
Take `COC1=C2CC(C)CC(OC)C(O)C(C)C=C(C)C(OC(N)=O)C(OC)C=CC=C(C)C(=O)NC(=C(Br)C1=O)C2=O` (centres unmarked) [Example 37, 19-bromo-Geldanamycin]: the inhibition at 5 µg/mL stood at 84%.
Same read-out and setting: as for `CNCCNC1=C2CC(C)CC(OC)C(O)C(C)C=C(C)C(OC(N)=O)C(OC)C=CC=C(C)C(=O)NC(=CC1=O)C2=O` (centres unmarked) [Example 34], the figure is 67%; as for `COC1=C2CC(C)CC(OC)C(O)C(C)C=C(C)C(OC(N)=O)C(OC)C=CC=C(C)C(=O)NC(=C(Cl)C1=O)C2=O` (centres unmarked) [Example 39, 19-chloro-Geldanamycin], 91%.
Same read-out and setting: the figure for `COC1C=CC=C(C)C(=O)NC2=CC(=O)C(NCCN3CCOCC3)=C(CC(C)CC(OC)C(O)C(C)C=C(C)C1OC(N)=O)C2=O` (centres unmarked) [Example 26] is 93%; for `COC1C=CC=C(C)C(=O)NC2=CC(=O)C(NCCN3CCCC3)=C(CC(C)CC(OC)C(O)C(C)C=C(C)C1OC(N)=O)C2=O` (centres unmarked) [Example 32] it is 84%.
Consider `COC1/C=C\C=C(/C)C(=O)NC2=CC(=O)C(NCCN)=C(CC(C)CC(OC)C(O)C(C)/C=C(\C)C1OC(N)=O)C2=O` (centres unmarked) [Example 4], for which the inhibition at 5 µg/mL is 57%.
Still for that read-out and setting: the figure for `COC1C=CC=C(C)C(=O)NC2=CC(=O)C(NCc3cccnc3)=C(CC(C)CC(OC)C(O)C(C)C=C(C)C1OC(N)=O)C2=O` (centres unmarked) [Example 29] is 92%; for `COC1C=CC=C(C)C(=O)NC2=CC(=O)C(NCc3ccccn3)=C(CC(C)CC(OC)C(O)C(C)C=C(C)C1OC(N)=O)C2=O` (centres unmarked) [Example 28] it is 90%.

Staying with this experiment, now noted: Mus musculus; concentration 10 μg/ml; 48 hours after addition of sample; W-2K-11 cells; read-out: Percent inhibition (%).
For the compound `CNC(=O)OC1C(C)=CC(C)C(O)C(OC)CC(C)CC2=C(OC)C(=O)C=C(C2=O)N(C)C(=O)C(C)=CC=CC1OC` (centres unmarked) [Example 42, 21-N-methyl-7-OCONH-methyl-Geldanamycin], the inhibition at 10 µg/mL came out at 94%.
Same read-out and setting: the figure for `COC1C=CC=C(C)C(=O)NC2=CC(=O)C(N3CCCC3)=C(CC(C)CC(OC)C(O)C(C)C=C(C)C1OC(N)=O)C2=O` (centres unmarked) [Example 25] is 97%.
Still for that read-out and setting: the figure for `CCCCCCCCCCCCNC1=C2CC(C)CC(OC)C(O)C(C)/C=C(\C)C(OC(N)=O)C(OC)/C=C\C=C(/C)C(=O)NC(=CC1=O)C2=O` (centres unmarked) [Example 11] is 79%; for `CNC(=O)OC1C(C)=CC(C)C(O)C(OC)CC(C)CC2=C(OC)C(=O)C=C(NC(=O)C(C)=CC=CC1OC)C2=O` (centres unmarked) [Example 43, 7-OCONH-methyl Geldanamycin] it is 96%; for `CCCCCCCCNC1=C2CC(C)CC(OC)C(O)C(C)/C=C(\C)C(OC(N)=O)C(OC)/C=C\C=C(/C)C(=O)NC(=CC1=O)C2=O` (centres unmarked) [Example 9] it is 67%.
Same read-out and setting: as for `COC1/C=C\C=C(/C)C(=O)NC2=CC(=O)C(NC3CCCC3)=C(CC(C)CC(OC)C(O)C(C)/C=C(\C)C1OC(N)=O)C2=O` (centres unmarked) [Example 14], the figure is 97%.
With `COC1=NC2=CC(=O)C(OC)=C(CC(C)CC(OC)C(O)C(C)C=C(C)C(OC(N)=O)C(OC)C=CC=C1C)C2=O` (centres unmarked) [Example 40, 1-O-methyl-Geldanamycin], the inhibition at 10 µg/mL was 95%.
The same measure, in the same setting: the figure for `COC1/C=C\C=C(/C)C(=O)NC2=CC(=O)C(NCCOCCO)=C(CC(C)CC(OC)C(O)C(C)/C=C(\C)C1OC(N)=O)C2=O` (centres unmarked) [Example 19] is 88%; for `COC1/C=C\C=C(/C)C(=O)NC2=CC(=O)C(NC3CCCCCC3)=C(CC(C)CC(OC)C(O)C(C)/C=C(\C)C1OC(N)=O)C2=O` (centres unmarked) [Example 16] it is 98%; for `COC1/C=C\C=C(/C)C(=O)NC2=CC(=O)C(NCCCCN)=C(CC(C)CC(OC)C(O)C(C)/C=C(\C)C1OC(N)=O)C2=O` (centres unmarked) [Example 21] it is 53%.

The same experiment, now with this note: concentration 1 μg/ml; 48 hours after addition of sample; W-2K-11 cells.
Turning to “17-demethoxy-17,19-bisdimethylamino-Geldenamycin [Example 35]”, the “Percent inhibition (%)” value is listed as 92%.

The experiment is the same for the next values; noted with them: concentration 5 μg/ml; 48 hours after addition of sample; W-2K-11 cells.
For `CO[C@H]1/C=C\C=C(/C)C(=O)NC2=CC(=O)C(NCCN3CCCCC3)=C(C[C@@H](C)C[C@H](OC)[C@H](O)[C@@H](C)/C=C(\C)[C@@H]1OC(N)=O)C2=O` [Example 27], the “Percent inhibition (%)” value is 57%.

The experiment is the same for the next values; noted with them: concentration 10 μg/ml; 48 hours after addition of sample; W-2K-11 cells.
Take “17-demethoxy-17,19-bisdimethylamino-Geldenamycin [Example 35]”: the “Percent inhibition (%)” value is given as 97%.
Still for that read-out and setting: the figure for `COC1C=CC=C(C)C(=O)NC2=CC(=O)C(NCC34CC5CC(CC(C5)C3)C4)=C(CC(C)CC(OC)C(O)C(C)C=C(C)C1OC(N)=O)C2=O` (centres unmarked) [Example 17] is 98%.

Source of the values: patent US4261989A, “Geldanamycin derivatives and antitumor drug” (Kaken Chemical Co. Ltd., priority 1979, dated 1981).
